Laboratory results: patent publication US20120295965A1, “FUSED THIOPHENES AS DUAL INHIBITORS OF EGFR/VEGFR AND THEIR USE IN THE TREATMENT OF CANCER” (priority 2009, published 2012)

Legend:
[1] = system: EGF response in HT29; experiment: Epic label-free DMR biosensor cellular assay, EGF marker in HT29; format: cell-based, human
Method: (§1) All cell lines were obtained from American Type Cell Culture (Manassas, Va.). The cell culture medium was as follows: (1) Dulbecco's modified Eagle's medium (DMEM) supplemented with 10% fetal bovine serum (FBS), 4.5 g/liter glucose, 2 mM glutamine, and antibiotics for human epidermoid carcinoma A431; and (2) McCoy's 5a Medium Modified supplemented with 10% FBS, 4.5 g/liter glucose, 2 mM glutamine, and antibiotics for human colorectal adenocarcinoma HT29.
(§2) Cells were typically grown using ˜1 to 2×10^4 cells per well at passage 3 to 15 suspended in 50 μl of the corresponding culture medium in the biosensor microplate, and were cultured at 37° C. under air/5% CO2 for ˜1 day. Except for A431 which underwent one day culture followed by one starvation in serum free medium, all other cells were directly assayed without starvation. The confluency for all cells at the time of assays was ˜95% to 100%.
(§3) Epic® beta version wavelength interrogation system (Corning Inc., Corning, N.Y.) was used for whole cell sensing. This system consists of a temperature-control unit, an optical detection unit, and an on-board liquid handling unit with robotics. The detection unit is centered on integrated fiber optics, and enables kinetic measures of cellular responses with a time interval of ˜15 sec.
(§4) To study the influence of molecules on a marker-induced response, a second stimulation with the marker at a fixed dose (typically at EC80 or EC100) was applied. The resonant wavelengths of all biosensors in the microplate were normalized again to establish a second baseline, right before the second stimulation. The two stimulations were usually separated by ˜1 hr.
(§5) All studies were carried out at a controlled temperature (28° C.). At least two independent sets of experiments, each with at least three replicates, were performed.
(§6) The DMR modulation index were generated against 4 markers across two distinct cell lines—the EGFR agonist EGF in A431 (EGF at 32 nM), and the EGFR agonist EGF in HT29 (EGF at 2 nM), the hERG activator mallotoxin (MTX) in HT29 (MTX at 16 micromlar), and the NTS1/NTS3 agonist neurotensin (NT) in HT29 (NT at 2 nM). The EGF responses in A431 cells include the early P-DMR event (˜5 min after EGF stimulation) and the subsequent N-DMR event (˜30 min after EGF stimulation). The EGF responses in HT29 include the early P-DMR event (˜5 min after EGF stimulation) and the late P-DMR event (˜50 min after EGF stimulation), whereas the mallotoxin response in HT29 is the P-DMR response 50 min after MTX stimulation, and the NT response in HT29 is the P-DMR 50 min after NT stimulation. In all cases, the amplitudes of respective DMR events were used as the basis to calculate the percentages of modulation by each inhibitor.

[2] = system: EGF response in A431 cells; experiment: Epic label-free DMR biosensor cellular assay, EGF marker in A431; format: cell-based, human
Method: as §1, §2, §3, §4, §5, §6

[3] = system: NT response in HT29; experiment: Epic label-free DMR biosensor cellular assay, neurotensin marker in HT29; format: cell-based, human
Method: The NTS1 natural agonist neurotensin is known to activate the endogenous NTS1/NTS3 heterodimers in HT29 cells. […] Thus, neurotensin was chosen as an indirect marker for identifying potential EGFR inhibitors.
as §1, §2, §3, §4, §5, §6

[4] = system: mallotoxin response in HT29; experiment: Epic label-free DMR biosensor cellular assay, hERG activator mallotoxin marker in HT29
Method: HT29 expresses VEGFR1 (Flt1 receptor), but not other VEGF receptors.
as §1
Cells were typically grown using ˜1 to 2×10^4 cells per well at passage 3 to 15 suspended in 50 μl of the corresponding culture medium in the biosensor microplate, and were cultured at 37° C. under air/5% CO2 for ˜1 day. Except for A431 which underwent one day culture followed by one starvation in serum free medium, all other cells were directly assayed without starvation.
as §3
For biosensor cellular assays, molecule solutions were made by diluting the stored concentrated solutions with the HBSS (1× Hanks balanced salt solution, plus 20 mM Hepes, pH 7.1), and transferred into a 384well polypropylene molecule storage plate to prepare a molecule source plate. Both molecule and marker source plates were made separately when a two-step assay was performed. In parallel, the cells were washed twice with the HBSS and maintained in 30 μl of the HBSS to prepare a cell assay plate. Both the cell assay plate and the molecule and marker source plate(s) were then incubated in the hotel of the reader system. After ˜1 hr of incubation the baseline wavelengths of all biosensors in the cell assay microplate were recorded and normalized to zero. Afterwards, a 2 to 10 minute continuous recording was carried out to establish a baseline, and to ensure that the cells reached a steady state. Cellular responses were then triggered by pipetting 10 μl of the marker solutions into the cell assay plate using the on-board liquid handler.
as §4, §5, §6

[5] = molecular target: T1, VEGFR1 (FLT1) (Homo sapiens, UniProt P17948); experiment: LanthaScreen TR-FRET kinase assay, VEGFR1 (FLT1); format: biochemical
T1 construct: purchased Invitrogen
Method: (§7) LanthaScreen TR-FRET kinase assay reagents and the recombinant EGFR, VEGFR1 (FLT1), VEGFR2 (KDR) were purchased from Invitrogen. Known kinase inhibitors were used as positive controls.
(§8) Each EGFR reaction contains 51 ng/ml kinase, 2.4 μM ATP and 0.2 μM substrate. […] Each VEGFR2 (KDR) reaction contains 4 ng/ml kinase, 13 μM ATP and 0.2 μM substrate. Kinase reactions are allowed to proceed for 1 hour at room temperature before a 10 μl preparation of EDTA (20 mM) and Tb-labeled antibody (4 nM) in TR-FRET dilution buffer are added. The final concentration of antibody in the assay well is 2 nM, and the final concentration of EDTA is 10 mM. The plate is allowed to incubate at room temperature for at least 30 minutes before being read on a Tecan SafireII plate reader configured for LanthaScreen™ TR-FRET (Excitation at 340 nm, emission at 495 nm and 520 nm). The final readout is the emission ratio 520 nm/495 nm. Each data point is the average of 4 replicates.

[6] = molecular target: T2, EGFR (Homo sapiens, UniProt P00533); experiment: LanthaScreen TR-FRET kinase assay, EGFR; format: biochemical; design: purchased Invitrogen; conditions: compounds at 25 micromolar; FIG. 1
[7] = molecular target: T3, VEGFR2 (KDR) (Homo sapiens, UniProt P35968); experiment: LanthaScreen TR-FRET kinase assay, VEGFR2 (KDR); format: biochemical; conditions: for inhibition of FRET signal of VEGFR2 tyrosine kinase: compounds at 25 micromolar, FIG. 3
T3 construct: purchased Invitrogen
Method: as §7, §8

[8] = molecular target: T2, EGFR; conditions: known inhibitors; cited from earlier work
[9] = system: HT29 cells; conditions: up to 100 nM; un-starved HT29 cells; data not shown
[10] = compounds at 25 micromolar, FIG. 2

T3 sequence (P35968 20-1356): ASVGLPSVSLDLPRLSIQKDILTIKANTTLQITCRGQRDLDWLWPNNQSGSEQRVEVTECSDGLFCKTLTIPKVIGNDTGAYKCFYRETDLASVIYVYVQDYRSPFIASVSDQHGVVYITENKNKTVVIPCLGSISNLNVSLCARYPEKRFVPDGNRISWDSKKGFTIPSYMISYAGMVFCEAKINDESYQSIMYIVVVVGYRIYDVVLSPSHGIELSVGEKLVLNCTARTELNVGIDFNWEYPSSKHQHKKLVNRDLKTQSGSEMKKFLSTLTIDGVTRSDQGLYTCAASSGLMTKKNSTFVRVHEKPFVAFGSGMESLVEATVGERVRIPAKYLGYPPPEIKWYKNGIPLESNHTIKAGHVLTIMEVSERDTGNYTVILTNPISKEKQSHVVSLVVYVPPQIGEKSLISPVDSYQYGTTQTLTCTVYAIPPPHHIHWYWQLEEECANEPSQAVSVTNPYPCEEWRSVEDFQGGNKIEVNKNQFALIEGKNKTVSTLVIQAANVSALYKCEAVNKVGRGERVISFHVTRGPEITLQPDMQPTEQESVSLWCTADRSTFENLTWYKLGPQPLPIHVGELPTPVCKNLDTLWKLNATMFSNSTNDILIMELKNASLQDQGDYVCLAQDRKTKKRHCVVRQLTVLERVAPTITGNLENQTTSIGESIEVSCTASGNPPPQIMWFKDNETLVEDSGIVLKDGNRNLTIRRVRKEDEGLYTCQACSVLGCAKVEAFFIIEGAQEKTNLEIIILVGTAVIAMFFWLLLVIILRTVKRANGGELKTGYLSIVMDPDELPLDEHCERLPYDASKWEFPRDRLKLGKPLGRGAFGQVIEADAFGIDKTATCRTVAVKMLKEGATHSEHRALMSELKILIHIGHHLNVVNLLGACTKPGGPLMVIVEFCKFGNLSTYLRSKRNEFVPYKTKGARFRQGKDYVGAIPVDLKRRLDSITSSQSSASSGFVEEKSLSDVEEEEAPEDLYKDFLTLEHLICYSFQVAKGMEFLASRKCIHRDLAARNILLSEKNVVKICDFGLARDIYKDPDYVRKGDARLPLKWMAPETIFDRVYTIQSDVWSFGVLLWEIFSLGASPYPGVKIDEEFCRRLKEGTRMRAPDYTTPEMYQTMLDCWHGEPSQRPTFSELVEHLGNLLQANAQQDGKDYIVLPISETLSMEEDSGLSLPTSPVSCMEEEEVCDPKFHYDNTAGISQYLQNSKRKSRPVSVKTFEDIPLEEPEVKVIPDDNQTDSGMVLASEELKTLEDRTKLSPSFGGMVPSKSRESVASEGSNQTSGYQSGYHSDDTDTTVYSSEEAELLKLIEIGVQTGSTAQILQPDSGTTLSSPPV
T2 sequence (P00533 25-1210): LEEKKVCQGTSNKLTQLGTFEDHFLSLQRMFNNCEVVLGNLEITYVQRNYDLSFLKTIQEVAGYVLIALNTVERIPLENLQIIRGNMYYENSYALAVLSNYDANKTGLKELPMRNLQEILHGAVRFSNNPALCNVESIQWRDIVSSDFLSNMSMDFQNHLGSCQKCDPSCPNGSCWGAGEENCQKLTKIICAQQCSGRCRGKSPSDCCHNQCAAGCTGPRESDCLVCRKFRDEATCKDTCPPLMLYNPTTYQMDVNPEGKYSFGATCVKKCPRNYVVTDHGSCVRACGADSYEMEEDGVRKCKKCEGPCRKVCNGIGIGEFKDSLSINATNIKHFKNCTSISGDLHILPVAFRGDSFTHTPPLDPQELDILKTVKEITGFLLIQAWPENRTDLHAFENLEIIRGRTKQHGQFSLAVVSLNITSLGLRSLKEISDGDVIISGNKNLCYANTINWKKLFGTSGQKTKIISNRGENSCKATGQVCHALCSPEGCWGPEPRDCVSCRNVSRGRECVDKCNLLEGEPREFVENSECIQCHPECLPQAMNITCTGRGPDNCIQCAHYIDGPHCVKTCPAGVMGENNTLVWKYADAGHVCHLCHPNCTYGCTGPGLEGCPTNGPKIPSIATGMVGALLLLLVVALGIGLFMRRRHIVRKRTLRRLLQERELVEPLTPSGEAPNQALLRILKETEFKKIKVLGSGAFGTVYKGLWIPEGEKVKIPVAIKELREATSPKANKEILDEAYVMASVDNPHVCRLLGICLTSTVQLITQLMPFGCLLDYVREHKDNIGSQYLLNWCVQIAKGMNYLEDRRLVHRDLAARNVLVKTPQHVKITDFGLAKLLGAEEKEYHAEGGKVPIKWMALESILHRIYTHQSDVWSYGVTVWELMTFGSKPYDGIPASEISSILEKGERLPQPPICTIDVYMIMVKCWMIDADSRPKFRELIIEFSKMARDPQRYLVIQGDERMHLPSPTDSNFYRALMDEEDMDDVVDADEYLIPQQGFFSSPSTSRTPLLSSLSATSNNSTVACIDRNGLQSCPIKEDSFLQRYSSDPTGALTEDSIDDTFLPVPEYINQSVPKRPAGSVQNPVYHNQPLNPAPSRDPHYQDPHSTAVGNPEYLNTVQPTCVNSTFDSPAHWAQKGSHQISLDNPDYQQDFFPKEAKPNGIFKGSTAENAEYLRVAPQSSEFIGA
T1 sequence (P17948 27-1338): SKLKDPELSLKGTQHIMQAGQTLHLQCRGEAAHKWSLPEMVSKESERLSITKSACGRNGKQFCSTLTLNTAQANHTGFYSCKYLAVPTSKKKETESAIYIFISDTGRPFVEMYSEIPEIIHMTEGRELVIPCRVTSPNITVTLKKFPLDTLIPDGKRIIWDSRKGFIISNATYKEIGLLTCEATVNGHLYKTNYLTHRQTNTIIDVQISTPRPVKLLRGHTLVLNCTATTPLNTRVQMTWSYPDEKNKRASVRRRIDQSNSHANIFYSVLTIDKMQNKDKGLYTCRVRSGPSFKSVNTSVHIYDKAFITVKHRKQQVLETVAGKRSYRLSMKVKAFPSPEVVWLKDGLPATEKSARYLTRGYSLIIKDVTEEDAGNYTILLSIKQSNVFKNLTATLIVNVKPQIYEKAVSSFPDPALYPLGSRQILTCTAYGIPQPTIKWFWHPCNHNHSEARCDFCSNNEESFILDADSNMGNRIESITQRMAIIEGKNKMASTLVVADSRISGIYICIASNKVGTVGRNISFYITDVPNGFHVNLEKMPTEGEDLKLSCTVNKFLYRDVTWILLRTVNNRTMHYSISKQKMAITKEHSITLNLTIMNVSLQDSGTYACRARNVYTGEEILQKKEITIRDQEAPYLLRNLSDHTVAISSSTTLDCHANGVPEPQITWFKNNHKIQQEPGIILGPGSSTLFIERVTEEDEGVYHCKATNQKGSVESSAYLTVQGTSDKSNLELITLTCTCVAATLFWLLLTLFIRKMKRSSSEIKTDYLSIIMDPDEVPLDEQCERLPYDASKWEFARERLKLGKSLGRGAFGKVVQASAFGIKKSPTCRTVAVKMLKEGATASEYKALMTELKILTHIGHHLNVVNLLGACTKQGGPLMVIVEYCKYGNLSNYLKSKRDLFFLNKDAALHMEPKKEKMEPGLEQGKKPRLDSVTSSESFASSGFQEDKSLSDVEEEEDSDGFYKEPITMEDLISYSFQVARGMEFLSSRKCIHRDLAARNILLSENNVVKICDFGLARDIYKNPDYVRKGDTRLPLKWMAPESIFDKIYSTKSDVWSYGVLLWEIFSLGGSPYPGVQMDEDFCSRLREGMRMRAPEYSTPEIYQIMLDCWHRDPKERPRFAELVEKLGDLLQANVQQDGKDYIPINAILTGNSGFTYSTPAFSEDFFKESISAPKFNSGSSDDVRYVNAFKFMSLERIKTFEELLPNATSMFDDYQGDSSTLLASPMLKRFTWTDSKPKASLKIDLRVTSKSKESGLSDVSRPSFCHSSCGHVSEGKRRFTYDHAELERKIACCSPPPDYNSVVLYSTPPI

6H-Indeno[1,2-e]tetrazolo[1,5-b][1,2,4]triazin-6-one & 10H-Indeno[2,1-e]tetrazolo[1,5-b][1,2,4]triazin-10-one [dual PDK1/AKT/Flt1 pathway inhibitor]
effect on early P-DMR event of the EGF response in HT29 ([1]; EGF at 2 nM, early P-DMR): almost completely attenuated | effect on late P-DMR event of the EGF response in HT29 ([1]; EGF at 2 nM, late P-DMR): almost completely attenuated | effect on early P-DMR event in the EGF response in A431 ([2]; EGF at 32 nM, early P-DMR): almost completely attenuated

COc1cc2ncnc(Nc3cccc(Cl)c3)c2cc1OC [AG1478]
impact on DMR signal of NT in HT29 ([3]; NT at 2 nM): partial inhibition | impact on DMR signal of MTX in HT29 ([4]; MTX at 16 micromolar): partial inhibition

CCCCCCc1csc2cc(C(=O)O)sc12 [Compound H, 6-hexyl-thieno[3,2-b]thiophene-2-carboxylic acid]
inhibition of FRET signal of VEGFR1 tyrosine kinase [5, 10]: less potent than the others | inhibition of FRET signal of EGFR tyrosine kinase [6]: less potent than the others | inhibition of FRET signal of VEGFR2 tyrosine kinase [7]: less potent than the others

CCCCCCc1csc2c(CCCCCC)c(C(=O)O)sc12 [Compound J, 3,6-Dihexyl-thieno[3,2-b]thiophene-2-carboxylic acid]
inhibition of FRET signal of VEGFR1 tyrosine kinase [5, 10]: less potent than the others | inhibition of FRET signal of EGFR tyrosine kinase [6]: less potent than the others | inhibition of FRET signal of VEGFR2 tyrosine kinase [7]: less potent than the others

Cc1csc2c1sc1cc(C(=O)O)sc12 [Compound K, 5-methyldithieno[3,2-b:2′3′-d] thiophene-2-carboxyl acid]
inhibition of FRET signal of VEGFR1 tyrosine kinase [5, 10]: less potent than the others | inhibition of FRET signal of EGFR tyrosine kinase [6]: less potent than the others | inhibition of FRET signal of VEGFR2 tyrosine kinase [7]: less potent than the others

C[C@@H](N)[C@H]1CC[C@H](C(=O)Nc2ccncc2)CC1 [Compound Y-27632, reference compound]
attenuation of FRET signal for VEGFR2 tyrosine kinase ([7]; concentration not given): significantly attenuated

c1ccc(-c2cnc(Nc3ccc(OCCN4CCCC4)cc3)s2)cc1 [Flt3 inhibitor III, (5-Phenyl-thiazol-2-yl)-(4-(2-pyrrolidin-1-yl-ethoxy)-phenyl)-amine]
impact on DMR signal of EGF in HT29 ([1]; EGF at 2 nM): little impact | impact on DMR signal of NT in HT29 ([3]; NT at 2 nM): little impact | impact on DMR signal of MTX in HT29 ([4]; MTX at 16 micromolar): little impact | impact on DMR signal of EGF in A431 ([2]; EGF at 32 nM): little impact

CCCCCCCCCCc1csc2c(CCCCCC)c(C(=O)O)sc12 [I]
modulation of EGF response in HT29, early P-DMR ([1]; EGF at 2 nM, early P-DMR ~5 min after EGF stimulation): −70% | modulation of EGF response in HT29, late P-DMR ([1]; EGF at 2 nM, late P-DMR ~50 min after EGF stimulation): −100% | modulation index score, EGF in HT29 early P-DMR ([1]; score = modulation percentage/10, 3rd coordinate): −7 | modulation index score, EGF in HT29 late P-DMR ([1]; score = modulation percentage/10, 4th coordinate): −10 | modulation of NT response in HT29, P-DMR ([3]; NT at 2 nM, P-DMR 50 min after NT stimulation): −106% | modulation index score, NT in HT29 P-DMR ([3]; score = modulation percentage/10, 6th coordinate): −10.6 | modulation of MTX response in HT29, P-DMR ([4]; MTX at 16 micromolar, P-DMR 50 min after MTX stimulation): −60% | modulation index score, MTX in HT29 P-DMR ([4]; score = modulation percentage/10, 5th coordinate): −6 | modulation of EGF response in A431, N-DMR ([2]; EGF at 32 nM, N-DMR ~30 min after EGF stimulation): −65% | modulation of EGF response in A431, early P-DMR ([2]; EGF at 32 nM, early P-DMR ~5 min after EGF stimulation): −60% | modulation index score, EGF in A431 N-DMR ([2]; score = modulation percentage/10, 2nd coordinate): −6.5

O=C(O)c1cc(N(Cc2ccccc2O)Cc2cc(O)ccc2O)ccc1O [Lavendustin A]
strength as EGFR inhibitor [8]: weak EGFR inhibitor

CCOC(=O)c1c(C)[nH]c(/C=C2\C(=O)Nc3ccccc32)c1C [VEGFR2 tyrosine kinase inhibitor I, (Z)-3-[(2,4-Dimethyl-3-(ethoxycarbonyl)pyrrol-5-yl)methylidenyl]indolin-2-one]
impact on DMR signal of EGF in HT29 ([1]; EGF at 2 nM): little impact | impact on DMR signal of NT in HT29 ([3]; NT at 2 nM): little impact | impact on DMR signal of MTX in HT29 ([4]; MTX at 16 micromolar): little impact | impact on DMR signal of EGF in A431 ([2]; EGF at 32 nM): little impact

O=C1Nc2ccc(Br)cc2/C1=C/c1cc2c([nH]1)CCCC2 [VEGFR2 tyrosine kinase inhibitor II, (Z)-5-Bromo-3-(4,5,6,7-tetrahydro-1H-indol-2-ylmethylene)-1,3-dihydroindol-2-one]
impact on DMR signal of EGF in HT29 ([1]; EGF at 2 nM): little impact | impact on DMR signal of NT in HT29 ([3]; NT at 2 nM): little impact | impact on DMR signal of MTX in HT29 ([4]; MTX at 16 micromolar): little impact | impact on DMR signal of EGF in A431 ([2]; EGF at 32 nM): little impact

CN[C@@H]1C[C@H]2O[C@@](C)([C@@H]1OC)n1c3ccccc3c3c4c(c5c6ccccc6n2c5c31)C(=O)NC4 [staurosporine, reference compound]
inhibition of FRET signal of VEGFR1 tyrosine kinase ([5]; at 10 micromolar): completely inhibited

VEGF
DMR signal triggered [9]: very small DMR signal
